From patent US12227517B2, “Pyridazinyl-thiazolecarboxamide compound” (Astellas Pharma Inc., priority 2019, dated 2025) come the findings set out here.

Some results are limits rather than exact numbers.

For orientation: IC50 means the midpoint of a concentration-inhibition curve.

human recombinant DGK ξ, sequence (Q13574 whole entry): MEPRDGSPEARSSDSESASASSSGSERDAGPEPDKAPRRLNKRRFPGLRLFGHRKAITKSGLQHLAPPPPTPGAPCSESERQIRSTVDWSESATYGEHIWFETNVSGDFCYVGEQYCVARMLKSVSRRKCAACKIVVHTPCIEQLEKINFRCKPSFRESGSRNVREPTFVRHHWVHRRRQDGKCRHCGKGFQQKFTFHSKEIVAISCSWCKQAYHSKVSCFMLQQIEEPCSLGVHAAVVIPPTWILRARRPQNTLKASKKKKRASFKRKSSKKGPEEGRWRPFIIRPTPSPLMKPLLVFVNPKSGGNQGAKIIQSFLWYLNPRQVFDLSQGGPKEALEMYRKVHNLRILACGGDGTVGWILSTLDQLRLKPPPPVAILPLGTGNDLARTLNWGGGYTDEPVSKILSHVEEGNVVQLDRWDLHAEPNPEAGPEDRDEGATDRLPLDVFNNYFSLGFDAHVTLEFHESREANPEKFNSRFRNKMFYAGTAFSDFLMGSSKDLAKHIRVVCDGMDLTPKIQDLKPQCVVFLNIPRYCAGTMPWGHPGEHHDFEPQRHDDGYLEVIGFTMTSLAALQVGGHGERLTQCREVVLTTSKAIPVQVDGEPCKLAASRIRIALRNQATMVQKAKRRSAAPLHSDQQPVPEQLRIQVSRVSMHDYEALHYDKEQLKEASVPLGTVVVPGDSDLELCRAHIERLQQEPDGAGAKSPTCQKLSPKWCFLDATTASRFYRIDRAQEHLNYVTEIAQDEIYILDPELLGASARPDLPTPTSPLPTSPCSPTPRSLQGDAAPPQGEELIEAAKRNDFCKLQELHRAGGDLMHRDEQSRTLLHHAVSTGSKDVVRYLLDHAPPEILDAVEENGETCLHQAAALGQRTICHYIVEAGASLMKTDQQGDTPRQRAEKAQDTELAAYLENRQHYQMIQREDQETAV

The assay addresses human recombinant DGK ξ (Homo sapiens (Human), UniProt Q13574). Description: Evaluation of DGK ξ inhibitory effect (ADP-Glo Kinase Assay). The assay is classed as biochemical. Here is the method:
Test Example 1: Evaluation of DGK ξ Inhibitory Effect
The inhibitory effect of a test compound on human recombinant DGK ξ (Carna Biosciences, Inc., 12-410-20N) was examined by the following method in which detection is performed with ADP-Glo™ Kinase Assay (Promega Corporation).
To a 384-well plate (Greiner Bio-One Co., Ltd.), 3 μL of a […] dissolved in an assay buffer (40 mM Tris-HCl pH 7.5, 10 mM MgCl2, 1 mM dithiothreitol (DTT) and 0.1 mg/mL bovine serum albumin (BSA)) (90 ng/mL) was added, and 3 μL of the test compound diluted with the same assay buffer was added so that an intended final concentration was obtained. The mixture was left standing at room temperature for 15 minutes, 3 μL of a substrate (150 μM 1-oleoyl-2-acetyl-sn-glycerol (Sigma-Aldrich Co. LLC.), 480 μM phosphatidylserine (Avanti Polar Lipids, Inc.) and 150 μM UltraPure-ATP (attached to ADP-Glo)) was then added, and the mixture was left standing at room temperature for 30 minutes to react. Thereafter, 3 μL of an ADP-Glo Reagent was added, and the mixture was left standing at room temperature for 40 minutes to stop the enzyme reaction. Further, 6 μL of a Kinase-Detection Reagent was added, the mixture was left standing at room temperature for 30 minutes, and the luminescence was then measured using ARVO X3 (PerkinElmer, Inc.). The half maximal inhibitory concentration (IC50) was calculated by Sigmoid-Emax model non-linear regression analysis, where the signal value in solvent treatment was set to 0% inhibition and the signal value without addition of the DGK ξ enzyme was set to 100% inhibition. […] In the table, Ex represents the number of each Example described below. Also, in the table, compound C (cpd. C) represents the test compound of the Example 199 described in the international publication WO 2008/054702.
As to `CN[C@@H]1CCN2CCN(c3c(NC(=O)c4csc(-c5ccnnc5)n4)ccc(OC4CC4)c3C(F)(F)F)C[C@@H]12` [Example 77], the IC50 was 2 nM.
As for `Cn1nccc1Oc1ccc(NC(=O)c2csc(-c3ccnnc3)n2)c(N2CCC[C@@H](CN)C2)c1C(F)(F)F` [Example 44], the IC50 stood at 19 nM.
Consider `NC[C@@H]1CCCN(c2c(NC(=O)c3csc(-c4ccnnc4)n3)ccc(S(=O)(=O)c3ccccc3)c2C(F)(F)F)C1` [Example 66], for which the IC50 came out at 32 nM.
With `CN(C)CC[C@@H]1CN(c2c(NC(=O)c3csc(-c4ccnnc4)n3)ccc(Oc3ccccc3)c2C(F)(F)F)CCO1` [Example 58], the IC50 came out at 144 nM.
The result for `CNC[C@@H]1CN(c2c(NC(=O)c3csc(-c4ccnnc4)n3)ccc(Oc3ccccc3)c2C(F)(F)F)CCO1` [Example 26] reads 46 nM; that for `CN(C)[C@H]1CCN2CCN(c3c(NC(=O)c4csc(-c5ccnnc5)n4)ccc(Oc4ccccc4)c3C(F)(F)F)C[C@H]12` [Example 81], 152 nM.
The result for `NC[C@H]1CCCN1c1c(NC(=O)c2csc(-c3ccnnc3)n2)ccc(Oc2ccccc2)c1C(F)(F)F` [Example 87] reads 20 nM; that for `COCCN1CCC2(CCCN(c3c(NC(=O)c4csc(-c5ccnnc5)n4)ccc(Oc4ccccc4)c3C(F)(F)F)C2)CC1` [Example 61], 3 nM; that for `NC[C@@H]1CN(c2c(NC(=O)c3csc(-c4ccnnc4)n3)ccc(Oc3ccccc3)c2C(F)(F)F)CCO1` [Example 25], 42 nM.
Take `NCC[C@@H]1CN(c2c(NC(=O)c3csc(-c4ccnnc4)n3)ccc(Oc3ccccc3)c2C(F)(F)F)CCO1` [Example 30]: the IC50 is 39 nM.
For the molecule `NC[C@@H]1CCCN(c2c(NC(=O)c3csc(-c4ccnnc4)n3)ccc(Oc3cccc(Cl)c3)c2C(F)(F)F)C1` [Example 40], the IC50 was 50 nM.
On to `CNCC[C@H]1CCCN1c1c(NC(=O)c2csc(-c3ccnnc3)n2)ccc(Oc2ccccc2)c1C(F)(F)F` [Example 46], for which the IC50 stood at 40 nM.
The result for `CNCC1CCCN(c2c(NC(=O)c3csc(-c4ccnnc4)n3)ccc(Oc3ccccc3)c2C(F)(F)F)C1` (stereo not drawn) [Example 64, N-[2-{3-[(methylamino)methyl]piperidin-1-yl}-4-phenoxy-3-(trifluoromethyl)phenyl]-2-(pyridazin-4-yl)-1,3-thiazole-4-carboxamide] reads 30 nM; that for `CNC[C@H]1CCCN1c1c(NC(=O)c2csc(-c3ccnnc3)n2)ccc(Oc2ccccc2)c1C(F)(F)F` [Example 37], 26 nM.
The same measure for `NC[C@@H]1CCCN(c2c(NC(=O)c3csc(-c4ccnnc4)n3)ccc(Oc3ccc(F)cc3)c2C(F)(F)F)C1` [Example 41]: 11 nM; for `O=C(Nc1ccc(Oc2ccccc2)c(C(F)(F)F)c1N1CCCC2(CCNCC2)C1)c1csc(-c2ccnnc2)n1` [Example 42]: 23 nM; for `NC[C@@H]1CCCN(c2c(NC(=O)c3csc(-c4ccnnc4)n3)ccc(Nc3ccccc3)c2C(F)(F)F)C1` [Example 18]: 19 nM.
With `CNC[C@@H]1CCCN(c2c(NC(=O)c3csc(-c4ccnnc4)n3)ccc(Oc3ccccc3)c2C(F)(F)F)C1` [Example 49, N-[2-{(3S)-3-[(methylamino)methyl]piperidin-1-yl}-4-phenoxy-3-(trifluoromethyl)phenyl]-2-(pyridazin-4-yl)-1,3-thiazole-4-carboxamide], the IC50 was 10 nM.
In the case of `CN(C)C[C@@H]1CCCN(c2c(NC(=O)c3csc(-c4ccnnc4)n3)cc(F)c(Oc3ccccc3)c2F)C1` [Example 57], the IC50 is 240 nM.
As to `NC[C@@H]1CCCN(c2c(NC(=O)c3csc(-c4ccnnc4)n3)ccc(Oc3ccccc3Cl)c2C(F)(F)F)C1` [Example 35], the IC50 came to 2 nM.
`Cc1c(OC2CC2)ccc(NC(=O)c2csc(-c3ccnnc3)n2)c1N1CCC[C@@H](CN)C1` [Example 71]: the IC50 turned out to be 44 nM.
The result for `NC[C@@H]1CCCN(c2c(NC(=O)c3csc(-c4ccnnc4)n3)ccc(Oc3cccc(F)c3)c2C(F)(F)F)C1` [Example 85] reads 15 nM; that for `CNC[C@H]1CCCN(c2c(NC(=O)c3csc(-c4ccnnc4)n3)ccc(Oc3ccccc3)c2C(F)(F)F)C1` [Example 50], 23 nM.
The result for `CCNC[C@@H]1CCCN(c2c(NC(=O)c3csc(-c4ccnnc4)n3)ccc(Oc3cccc(F)c3)c2C(F)(F)F)C1` [Example 52] reads 23 nM; that for `CNC[C@@H]1CCCN(c2c(NC(=O)c3csc(-c4ccnnc4)n3)ccc(Oc3cccc(F)c3)c2C(F)(F)F)C1` [Example 51], 16 nM.
As for `NC[C@@H]1CCCN(c2c(NC(=O)c3csc(-c4ccnnc4)n3)ccc(N3CCCC3)c2C(F)(F)F)C1` [Example 47], the concentration for half-maximal inhibition (IC50) is 147 nM.
Consider `NC[C@@H]1CCCN(c2c(NC(=O)c3csc(-c4ccnnc4)n3)ccc(OC3CC3)c2C(F)(F)F)C1` [Example 13], for which the IC50 amounted to 13 nM.
With `NC[C@@H]1CCCN(c2c(NC(=O)c3csc(-c4ccnnc4)n3)ccc(-c3ccccc3)c2C(F)(F)F)C1` [Example 28], the IC50 worked out at 42 nM.
`CNC[C@H]1CN(c2c(NC(=O)c3csc(-c4ccnnc4)n3)ccc(Oc3ccccc3)c2C(F)(F)F)CCO1` [Example 29]: the IC50 was 426 nM.
The result for `NC[C@@H]1CCCN(c2c(NC(=O)c3csc(-c4ccnnc4)n3)ccc(OC3CCCC3)c2C(F)(F)F)C1` [Example 15] reads 7 nM; that for `Cn1cc(Oc2ccc(NC(=O)c3csc(-c4ccnnc4)n3)c(N3CCC[C@@H](CN)C3)c2C(F)(F)F)cn1` [Example 16], 41 nM.
The same measure for `N[C@H]1CCN2CCN(c3c(NC(=O)c4csc(-c5ccnnc5)n4)ccc(Oc4ccccc4)c3C(F)(F)F)C[C@@H]12` [Example 74]: 41 nM; for `COCCNC[C@@H]1CCCN(c2c(NC(=O)c3csc(-c4ccnnc4)n3)ccc(Oc3cccc(F)c3)c2C(F)(F)F)C1` [Example 53]: 27 nM.
As for `NC[C@@H]1CCCN(c2c(NC(=O)c3csc(-c4ccnnc4)n3)ccc(Oc3c(F)cc(F)cc3F)c2C(F)(F)F)C1` [Example 23], the IC50 is 10 nM.
For the molecule `NC[C@H]1CCCN1c1c(NC(=O)c2csc(-c3ccnnc3)n2)ccc(Oc2ccccc2F)c1C(F)(F)F` [Example 19], the IC50 worked out at 15 nM.
The result for `NC[C@@H]1CCCN(c2c(NC(=O)c3csc(-c4ccnnc4)n3)ccc(Oc3ccccc3)c2C(F)(F)F)C1` [Example 84, N-{2-[(3S)-3-(aminomethyl)piperidin-1-yl]-4-phenoxy-3-(trifluoromethyl)phenyl}-2-(pyridazin-4-yl)-1,3-thiazole-4-carboxamide mono[(2E)-but-2-enedioate]] reads 6 nM; that for `O=C(Nc1ccc(OC2CC2)c(C(F)(F)F)c1C1=CCN(Cc2cc[nH]n2)CC1)c1csc(-c2ccnnc2)n1` [Example 3], 20 nM; that for `NC[C@@H]1CCCN(c2c(NC(=O)c3csc(-c4ccnnc4)n3)cc(F)c(Oc3ccccc3)c2F)C1` [Example 24], 11 nM.
In the case of `NC[C@@H]1CCCN(c2c(NC(=O)c3csc(-c4ccnnc4)n3)ccc(Oc3ccccn3)c2C(F)(F)F)C1` [Example 39], the IC50 came out at 7 nM.
The result for `NC[C@@H]1CCCN(c2c(NC(=O)c3csc(-c4ccnnc4)n3)ccc(C(=O)c3ccccc3)c2C(F)(F)F)C1` [Example 70] reads 7 nM; that for `NC[C@@H]1CCCN(c2c(NC(=O)c3csc(-c4ccnnc4)n3)ccc(Oc3c(F)cccc3F)c2C(F)(F)F)C1` [Example 22], 5 nM.
Take `N[C@@H]1CCN2CCN(c3c(NC(=O)c4csc(-c5ccnnc5)n4)ccc(Oc4ccccc4)c3C(F)(F)F)C[C@H]12` [Example 79]: the IC50 was determined as 47 nM.
Regarding `N#Cc1ccccc1Oc1ccc(NC(=O)c2csc(-c3ccnnc3)n2)c(N2CCC[C@@H](CN)C2)c1C(F)(F)F` [Example 38], the IC50 was 3 nM.
Turning to `NC[C@@H]1CCCN(c2c(NC(=O)c3csc(-c4ccnnc4)n3)ccc(Oc3ccccc3)c2C2CC2)C1` [Example 67], the IC50 was found to be 12 nM.
As to `CNC1(C(N)=O)CCN(c2ccccc2NC(=O)c2csc(-c3ccnnc3)n2)CC1` [cpd. C, reference compound], the IC50 was greater than 2000 nM.
As for `CNC[C@@H]1CCCN(c2c(NC(=O)c3csc(-c4ccnnc4)n3)ccc(Oc3ccccc3Cl)c2C(F)(F)F)C1` [Example 36], the 50% inhibitory concentration (IC50) amounted to 13 nM.
The result for `CN(C)C[C@@H]1CCCN(c2c(NC(=O)c3csc(-c4ccnnc4)n3)ccc(Oc3ccccc3)c2C(F)(F)F)C1` [Example 55] reads 99 nM; that for `NCC[C@@H]1CCCN(c2c(NC(=O)c3csc(-c4ccnnc4)n3)ccc(Oc3ccccc3)c2C(F)(F)F)C1` [Example 7], 110 nM.
With `CNC[C@H]1CN(c2c(NC(=O)c3csc(-c4ccnnc4)n3)ccc(Oc3ccccc3)c2C)CCN1C` [Example 65], the IC50 turned out to be 12 nM.
For the molecule `NC[C@@H]1CCCN(c2c(NC(=O)c3csc(-c4ccnnc4)n3)ccc(OC3CCC3)c2C(F)(F)F)C1` [Example 14], the IC50 came to 13 nM.
Consider `Cc1ccccc1Oc1ccc(NC(=O)c2csc(-c3ccnnc3)n2)c(N2CCC[C@@H](CN)C2)c1C(F)(F)F` [Example 21], for which the IC50 worked out at 6 nM.
